Results from patent US20180311342A1, “IMMUNOSTIMULATING AGENT” (AJINOMOTO CO., INC., priority 2017, published 2018).

What was measured:
Assay type in all cases: in vivo, BALB/c mice
[1] = system: anti-OVA-specific IgE antibody; experiment: Allergy inducing activity test: anti-OVA-specific IgE antibody in serum of OVA-immunized mice (DS mouse IgE ELISA (OVA) kit); conditions: for anti-OVA-specific IgE antibody production: after secondary immunization, dorsal-subcutaneous; for allergy inducing activity as compared to Addavax: conclusion from IgE after secondary immunization, compound in 5% αCD-added saline
Method: 8-Week-old female BALB/c mice were divided into groups (N=6), and each group was primarily immunized by dorsal-subcutaneous administration of (1) ovalbumin (OVA) (5 μg) dissolved in saline as an antigen (OVA single administration group), (2) OVA 5 μg and Addavax™ (mixed with saline at 1:1) dissolved in saline (Addavax™ administration group) as positive control adjuvant, (3) OVA 5 μg and SZ137 0.256 μmol dissolved or dispersed in 5% α-cyclodextrin (hereinafter to be simply referred to as αCD)-added saline (SZ137 administration group), (4) OVA (5 μg) and SZ138 (0.256 μmol) dissolved or dispersed in 5% αCD-added saline (SZ138 administration group), (5) OVA (5 μg) and SZ142 (0.256 μmol) dissolved or dispersed in 5% αCD-added saline (SZ142 administration group), (6) OVA (5 μg) and SZ144 (0.256 μmol) dissolved or dispersed in 5% αCD-added saline (SZ144 administration group), (7) OVA (5 μg) and SZ145 (0.256 μmol) dissolved or dispersed in 5% αCD-added saline (SZ145 administration group), (8) OVA (5 μg) and SZ146 (0.256 μmol) dissolved or dispersed in 5% αCD-added saline (SZ146 administration group), (9) OVA (5 μg) and SZ147 (0.256 μmol) dissolved or dispersed in 5% αCD-added saline (SZ147 administration group), (10) OVA (5 μg) and SZ148 (0.256 μmol) dissolved or dispersed in 5% αCD-added saline (SZ148 administration group), each per mouse. Two week later, the secondary immunization was carried out by dorsal-subcutaneous administration of solutions or dispersions similar to those of the above-mentioned (1)-(10) again. Two weeks from the secondary immunization, the whole blood was extracted under anesthesia, and the obtained serum sample was measured for anti-OVA-specific IgG1 subclass antibody, anti-OVA-specific IgG2a subclass antibody, and anti-OVA-specific IgE antibody.
The measurement method of the anti-OVA-specific IgE antibody in Experimental Example 1 and the following Experimental Examples 2-5, 8-10 is as follows.
DS mouse IgE ELISA (OVA) kit manufactured by DS Pharma Biomedical Co., Ltd. was used. The protocol is briefly shown below.
The serum sample and a standard reagent for drawing an analytical curve are diluted with a buffer and, after stirring, left standing at room temperature for 10 min. The sample and the standard solution are added to a plate bound with an IgE capture antibody in advance and, after stirring, the mixture is left standing at room temperature for 60 min. The mixture is washed three times with wash, HRP-labeled OVA is added, and the mixture is left standing at room temperature for 30 min. The mixture is washed three times with wash, a substrate solution is added, and the mixture is left standing in dark at room temperature for 30 min. A reaction quenching liquid is added, the mixture is stirred, and the absorbance (OD Value=450 nm) is immediately measured.
The standard used is one attached to the kit, the standard curve is drawn from the measured OD Value, and the concentration is calculated. […]

[2] = system: anti-OVA-specific IgE antibody; experiment: as above; conditions: for anti-OVA-specific IgE antibody production: Experimental Example 4: after secondary immunization, compound 0.256 μmol dissolved in saline (no αCD)
[3] = system: anti-OVA-specific IgG1 and IgG2a subclass antibody / anti-OVA-specific IgE antibody; experiment: Effective Index: index for adjuvant enhancing antibody production and not inducing allergy (IgG1 or IgG2a / IgE, relative to Addavax = 1.0)
Method: The serum samples obtained in Experimental Example 1 were evaluated for utilizability as an adjuvant to cause enhancement of antibody production by each compound and not induce allergy based on the following index (Effective Index). Whether each compound can be used as an adjuvant to cause enhancement of antibody production and not induce allergy was also evaluated in the same manner in the following Experimental Examples 2-10.
It is a problem that Addavax™ potentiates antigen-specific antibody production but induces allergy. Therefore, the index for adjuvant not inducing allergy (Effective Index) was defined as follows, and an index of each administration group in Experimental Examples 1-10 was calculated. That is, a value obtained by dividing mean of the concentrations of anti-OVA-specific IgG1 subclass antibody and anti-OVA-specific IgG2a subclass antibody of each group by mean of anti-OVA-specific IgE antibody concentration of each group was relatively compared with a value obtained by dividing mean of the concentrations of anti-OVA-specific IgG1 subclass antibody and anti-OVA-specific IgG2a subclass antibody of Addavax™ administration group by mean of anti-OVA-specific IgE antibody concentration of Addavax™ administration group as 1.0.

[4] = OVA 5 μg + compound 0.256 μmol in 5% αCD-added saline (Addavax mixed with saline at 1:1), compared to OVA single administration group
[5] = OVA 5 μg + compound 0.256 μmol in 5% αCD-added saline, compared to Addavax administration group
[6] = after secondary immunization, compound in 5% αCD-added saline, IgG1/IgE and IgG2a/IgE production amounts relative to Addavax administration group (1.0)

SMILES	anti-OVA-specific IgE antibody production [1, 5]	anti-OVA-specific IgE antibody production [1, 4]	allergy inducing activity as compared to Addavax [1]	also measured
CCCCCCCCCCCCCCCCCCCCCC(=O)N[C@@H](CCCNC(=N)N)C(=O)NCCCCCCCCCCCC.Cl [SZ138, N-[(1S)-1-(dodecylcarbamoyl)-4-guanidino-butyl]docosanamide hydrochloride]		an increase in the anti-OVA-specific IgE antibody production was not observed	may have a lower allergy inducing activity	
CCCCCCCCCCCCCCCCCCCCCC(=O)N[C@@H](CC(C)C)C(=O)NCCCCCCCCCCC [SZ142, N-[(1S)-3-methyl-1-(undecylcarbamoyl)butyl]docosanamide]		an increase in the anti-OVA-specific IgE antibody production was not observed	may have a lower allergy inducing activity	
CCCCCCCCCCCCCCCCCCCCCC(=O)NCC(C)(C)C(=O)NCCCCCCCCCCCC [SZ148, N-[3-(dodecylamino)-2,2-dimethyl-3-oxo-propyl]docosanamide]		an increase in the anti-OVA-specific IgE antibody production was not observed	may have a lower allergy inducing activity	
CCCCCCCCCCCCCCCCCCCCCC(=O)N[C@@H](CCCNC(=N)N)C(=O)NCCCCCCC.Cl [SZ163, N-[(1S)-4-guanidino-1-(heptylcarbamoyl)butyl]docosanamide hydrochloride]	lower		allergy inducing activity equivalent to or not more than that of Addavax™	
CCCCCCCCCCCCCCCC(=O)N[C@@H](CCCNC(=N)N)C(=O)NCCCCCCCCCCCC.Cl [SZ111, N-[(1S)-1-(dodecylcarbamoyl)-4-guanidino-butyl]hexadecanamide hydrochloride]	lower	did not increase significantly	may have a lower allergy inducing activity	anti-OVA-specific IgE antibody production ([2]; compared to Addavax administration group): lower; anti-OVA-specific IgE antibody production ([2]; compared to OVA single administration group): significantly increased; allergy inducing activity as compared to Addavax ([2]; Experimental Example 4: conclusion from IgE after secondary immunization, compound dissolved in saline): may have a lower allergy inducing activity; Effective Index ([3]; Experimental Example 4: after secondary immunization, compound dissolved in saline, IgG1/IgE and IgG2a/IgE relative to Addavax administration group (1.0)): > 1.0; Effective Index [3, 6]: > 1.0
CCCCCCCCCCCCCCCC(=O)N[C@@H](CCCCN)C(=O)NCCCCCCCCCCCC.Cl [SZ153, N-[(1S)-5-amino-1-(dodecylcarbamoyl)pentyl]hexadecanamide hydrochloride]		an increase in the anti-OVA-specific IgE antibody production was not observed	may have a lower allergy inducing activity	Effective Index [3, 6]: > 1.0
CCCCCCCCCCCCCCCC(=O)N[C@@H](CC(C)C)C(=O)NCCCCCCCCCCCC [SZ144, N-[(1S)-1-(dodecylcarbamoyl)-3-methyl-butyl]hexadecanamide]		an increase in the anti-OVA-specific IgE antibody production was not observed	may have a lower allergy inducing activity	
CCCCCCCC/C=C/CCCCCCCC(=O)N[C@@H](CCCNC(=N)N)C(=O)NCCCCCCCCCCCC.Cl [SZ161, (E)-N-[(1S)-1-(dodecylcarbamoyl)-4-guanidino-butyl]octadeca-9-enamide hydrochloride]	lower		allergy inducing activity equivalent to or not more than that of Addavax™	

Now from value to compound, other results behind:

anti-OVA-specific IgE antibody production [1, 5]	SMILES	anti-OVA-specific IgE antibody production [1, 4]	allergy inducing activity as compared to Addavax [1]	also measured
lower	CCCCCCCCCCCCCCCCNC(=O)N[C@@H](CCCNC(=N)N)C(=O)NCCCCCC.Cl [SZ168, (2S)-5-guanidino-2-(hexadecylcarbamoylamino)-N-hexyl-pentanamide hydrochloride]		allergy inducing activity equivalent to or not more than that of Addavax™	
lower	CCCCCCCCCCCCCCCCCCCCCC(=O)N[C@@H](CCCN)C(=O)NCCCCCCCCCCCC.Cl [SZ165, N-[(1S)-4-amino-1-(dodecylcarbamoyl)butyl]docosanamide hydrochloride]		allergy inducing activity equivalent to or not more than that of Addavax™	
lower	CCCCCCCCCCCCCCCCCCCCCC(=O)N[C@@H](CCCCNC(C)=O)C(=O)NCCCCCCCCCCCC [SZ167, N-[(1S)-5-acetamide-1-(dodecylcarbamoyl)pentyl]docosanamide]		allergy inducing activity equivalent to or not more than that of Addavax™	
lower	CCCCCCCCCCCCCCCCCCCCCC(=O)N[C@@H](CCCCNC(=N)N)C(=O)NCCCCCCCCCCCC.Cl [SZ166, N-[(1S)-1-(dodecylcarbamoyl)-5-guanidino-pentyl]docosanamide hydrochloride]		allergy inducing activity equivalent to or not more than that of Addavax™	
